Where two headings read alike, the source gives them in different places.
Molecular target: T1, P2X7 receptor (Homo sapiens, UniProt Q99572)
T1 construct: host or cells: SH-SY5Y
T1 sequence (Q99572 1-595): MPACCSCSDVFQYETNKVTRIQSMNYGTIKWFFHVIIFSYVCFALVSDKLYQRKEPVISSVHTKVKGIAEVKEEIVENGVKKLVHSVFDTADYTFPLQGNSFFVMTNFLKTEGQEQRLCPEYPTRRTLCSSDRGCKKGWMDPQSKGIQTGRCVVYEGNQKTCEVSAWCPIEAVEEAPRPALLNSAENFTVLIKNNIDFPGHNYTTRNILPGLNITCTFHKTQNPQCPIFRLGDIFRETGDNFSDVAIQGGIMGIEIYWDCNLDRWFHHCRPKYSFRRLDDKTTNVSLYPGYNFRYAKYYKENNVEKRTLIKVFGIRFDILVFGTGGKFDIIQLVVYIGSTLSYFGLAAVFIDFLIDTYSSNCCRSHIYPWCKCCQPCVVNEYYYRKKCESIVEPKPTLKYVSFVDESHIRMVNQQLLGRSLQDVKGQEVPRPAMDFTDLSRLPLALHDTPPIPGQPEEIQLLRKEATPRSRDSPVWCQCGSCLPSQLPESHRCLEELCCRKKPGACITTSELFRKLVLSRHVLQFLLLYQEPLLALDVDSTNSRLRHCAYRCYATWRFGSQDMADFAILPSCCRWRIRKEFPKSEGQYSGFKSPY
Experiment: P2X7 calcium mobilization assay, high throughput, antagonist activity (Example 4A)
Format: cell-based
In short: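 100,000 cells/well, plated day -1. Dye 1 h → rinse → compound 1 h, RT → FLIPR^TETRA Ca2+ mobilization. Max RFU minus mean negative control (no agonist); mean agonist-well max as positive control.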

[1] = SH-SY5Y cells, 50% decrease in fluorescence response to 80 μM BzATP, read-out: IC50

Compound | IC50 [1] [µM] | IC50 [µM]
O=C(NCC12CC3CC(CC(C3)C1)C2)c1cccc2nc(CC(=O)N3CCOCC3)cn12 [Compound 182, N-(adamantan-1-ylmethyl)-2-(2-morpholin-4-yl-2-oxoethyl)imidazo[1,2-a]pyridine-5-carboxamide] | < 2 | –
CCC(=O)NC1CCN(C(=O)Cc2cn3c(C(=O)NCC45CC6CC(CC(C6)C4)C5)cccc3n2)CC1 [Compound 183, N-(adamantan-1-ylmethyl)-2-{2-oxo-2-[4-(propionylamino)piperidin-1-yl]ethyl}imidazo[1,2-a]pyridine-5-carboxamide] | < 2 | –
CC(C)C(=O)NC1CCN(C(=O)Cc2cn3c(C(=O)NCC45CC6CC(CC(C6)C4)C5)cccc3n2)CC1 [Compound 184, N-(adamantan-1-ylmethyl)-2-{2-[4-(isobutyrylamino)piperidin-1-yl]-2-oxoethyl}imidazo[1,2-a]pyridine-5-carboxamide] | < 2 | –
CC1(C)CCCN(C(=O)Cc2cn3c(C(=O)NCC45CC6CC(CC(C6)C4)C5)cccc3n2)C1 [Compound 185, N-(adamantan-1-ylmethyl)-2-[2-(3,3-dimethylpiperidin-1-yl)-2-oxoethyl]imidazo[1,2-a]pyridine-5-carboxamide] | < 2 | –
CCCN(C)C(=O)Cc1cn2c(C(=O)NCC34CC5CC(CC(C5)C3)C4)cccc2n1 [Compound 186, N-(adamantan-1-ylmethyl)-2-{2-[methyl(propyl)amino]-2-oxoethyl}imidazo[1,2-a]pyridine-5-carboxamide] | < 2 | –
O=C(NCC12CC3CC(CC(C3)C1)C2)c1cccc2nc(CC(=O)N3CCC4(CC3)OCCO4)cn12 [Compound 187, N-(adamantan-1-ylmethyl)-2-[2-(1,4-dioxa-8-azaspiro[4.5]dec-8-yl)-2-oxoethyl]imidazo[1,2-a]pyridine-5-carboxamide] | – | < 2
N[C@H]1CCN(Cc2cn3c(C(=O)NCC45CC6CC(CC(C6)C4)C5)cccc3n2)C1 [Compound 188, N-(adamantan-1-ylmethyl)-2-{[(3S)-3-aminopyrrolidin-1-yl]methyl}imidazo[1,2-a]pyridine-5-carboxamide] | < 2 | –
CCOC(=O)C1CCCN(Cc2cn3c(C(=O)NCC45CC6CC(CC(C6)C4)C5)cccc3n2)C1 (stereo not shown) [Compound 189, ethyl 1-({5-[(adamantan-1-ylmethyl)carbamoyl]imi-dazo[1,2-a]pyridin-2-yl}methyl)piperidine-3-carboxylate] | – | < 2
O=C(NCC12CC3CC(CC(C3)C1)C2)c1cccc2nc(COC3CCNC3)cn12 (stereo not shown) [Compound 190, N-(adamantan-1-ylmethyl)-2-[(pyrrolidin-3-yloxy)methyl]imidazo[1,2-a]pyridine-5-carboxamide] | < 2 | –
O=C(NCC12CC3CC(CC(C3)C1)C2)c1cccc2nc(CN3CCCC(C(=O)O)C3)cn12 (stereo not shown) [Compound 191, 1-({5-[(adamantan-1-ylmethyl)carbamoyl]imi-dazo[1,2-a]pyridin-2-yl}methyl)piperidine-3-carboxylic acid] | – | < 2
O=C(NCC12CC3CC(CC(C3)C1)C2)c1cccc2nc(CC(=O)N3C[C@@H]4C[C@H]3CN4)cn12 [Compound 192, N-(adamantan-1-ylmethyl)-2-{2-[(1S,4S)-2,5-diazabicyclo[2.2.1]hept-2-yl]-2-oxoethyl}imidazo[1,2-a]pyridine-5-carboxamide] | < 2 | –
CS(=O)(=O)NCCc1cn2c(C(=O)NCC34CC5CC(CC(C5)C3)C4)cccc2n1 [Compound 193, N-(adamantan-1-ylmethyl)-2-{2-[(methylsulfonyl)amino]eth-yl}imidazo[1,2-a]pyridine-5-carboxamide] | < 2 | –
CCS(=O)(=O)NCCc1cn2c(C(=O)NCC34CC5CC(CC(C5)C3)C4)cccc2n1 [Compound 194, N-(adamantan-1-ylmethyl)-2-{2-[(ethylsulfonyl)amino]eth-yl}imidazo[1,2-a]pyridine-5-carboxamide] | < 2 | –
CC(=O)c1cn2c(C(=O)NCC34CC5CC(CC(C5)C3)C4)cccc2n1 [Compound 196, 2-acetyl-N-(adamantan-1-ylmethyl)imidazo[1,2-a]pyridine-5-carboxamide] | < 2 | –
O=C(NCC12CC3CC(CC(C3)C1)C2)c1cccc2nc(CN3CC[C@@H](N(CCO)CCO)C3)cn12 [Compound 197, N-(adamantan-1-ylmethyl)-2-({(3R)-3-[bis(2-hydroxy-ethyl)amino]pyrrolidin-1-yl}methyl)imidazo[1,2-a]pyridine-5-carboxamide] | < 2 | –
O=C(NCC12CC3CC(CC(C3)C1)C2)c1cccc2nc(CN3CC[C@@H](NCCO)C3)cn12 [Compound 198, N-(adamantan-1-ylmethyl)-2-({(3R)-3-[(2-hydroxy-ethyl)amino]pyrrolidin-1-yl}methyl)imidazo[1,2-a]pyridine-5-carboxamide] | < 2 | –
O=C(NCC12CC3CC(CC(C3)C1)C2)c1cccc2nc(Cn3cnc(CO)c3)cn12 [Compound 199, N-(adamantan-1-ylmethyl)-2-{[4-(hydroxymethyl)-1H-imidazol-1-yl]methyl}imidazo[1,2-a]pyridine-5-carboxamide] | < 2 | –
O=C(NCC12CC3CC(CC(C3)C1)C2)c1cccc2nc(Cn3cncc3CO)cn12 [Compound 200, N-(adamantan-1-ylmethyl)-2-{[5-(hydroxymethyl)-1H-imidazol-1-yl]methyl}imidazo[1,2-a]pyridine-5-carboxamide] | < 2 | –
CCC(=O)NCCc1cn2c(C(=O)NCC34CC5CC(CC(C5)C3)C4)cccc2n1 [Compound 201, N-(adamantan-1-ylmethyl)-2-[2-(propionylamino)eth-yl]imidazo[1,2-a]pyridine-5-carboxamide] | < 2 | –
CC(=O)NCCc1cn2c(C(=O)NCC34CC5CC(CC(C5)C3)C4)cccc2n1 [Compound 202, 2-(2-acetamidoethyl)-N-(adamantan-1-ylmethyl)imidazo[1,2-a]pyridine-5-carboxamide] | < 2 | –
O=C(O)c1cnn(Cc2cn3c(C(=O)NCC45CC6CC(CC(C6)C4)C5)cccc3n2)c1 [Compound 203, 1-({5-[(adamantan-1-ylmethyl)carbamoyl]imi-dazo[1,2-a]pyridin-2-yl}methyl)-1H-pyrazole-4-carboxylic acid] | – | < 2
CCOC(=O)c1cnn(Cc2cn3c(C(=O)NCC45CC6CC(CC(C6)C4)C5)cccc3n2)c1 [Compound 204, ethyl 1-({5-[(adamantan-1-ylmethyl)carbamoyl]imi-dazo[1,2-a]pyridin-2-yl}methyl)-1H-pyrazole-4-carboxylate] | – | < 2
CC(c1cn2c(C(=O)NCC34CC5CC(CC(C5)C3)C4)cccc2n1)N1CC[C@@H](N)C1 (stereo partly drawn) [Compound 205, N-(adamantan-1-ylmethyl)-2-{1-[(3R)-3-aminopyrrolidin-1-yl]ethyl}imidazo[1,2-a]pyridine-5-carboxamide] | < 2 | –
Nc1nnn(Cc2cn3c(C(=O)NCC45CC6CC(CC(C6)C4)C5)cccc3n2)n1 [Compound 206, N-(adamantan-1-ylmethyl)-2-[(5-amino-2H-tetrazol-2-yl)methyl]imidazo[1,2-a]pyridine-5-carboxamide] | < 2 | –
Nc1nnnn1Cc1cn2c(C(=O)NCC34CC5CC(CC(C5)C3)C4)cccc2n1 [Compound 207, N-(adamantan-1-ylmethyl)-2-[(5-amino-1H-tetrazol-1-yl)methyl]imidazo[1,2-a]pyridine-5-carboxamide] | < 2 | –
